Measured values as given in US5086066A, “Method of providing anxiolytic and antipsychotic treatment with substituted benzamides” (priority 1988, dated 1992).

Legend:
[1] = acute toxicity, median lethal dose (LD50) intravenously; details: mouse, in vivo, iv
Description: The compounds of the invention were also subjected to a study of acute toxicity when injected intravenously in male mice and female mice, which enabled the median lethal doses (LD50) to be determined.

rats = test: hyperactivity induced by injection of amphetamine into the nucleus accumbens (motor activity), antipsychotic activity; assay type: in vivo
Method: Tests were conducted to measure the antipsychotic activity of the compounds of the invention. In particular, the hyperactivity induced in rats by the perfusion of amphetamine into the nucleus accumbens was evaluated. This test consists in determining the effect of the compounds of the invention on hyperactivity produced in rats by the injection of amphetamine into the nucleus accumbens. Hyperactivity was induced by injecting 20 μg of amphetamine bilaterally into the nucleus accumbens. The compounds of the invention were administered subcutaneously at doses of 1 mg/kg and 10 mg/kg, 40 minutes before the injection of amphetamine. For each dose of test product, a group of 5 animals was used. A group treated only with amphetamine and a reference group which received only an inert vehicle comprised 10 animals.
Immediately after the injection of amphetamine, the rats were placed in individual cages equipped with photoelectric cells. Motor activity, characterized by the number of shifts from place to place in these cages, was determined by the number of interruptions of a light beam striking these cells. The measurements were made during the 80 minutes following the injection of amphetamine. The results, expressed as the number of shifts from place to place per 10-minute period, are collated in Table 2.

mice = test: two compartment (dark and light) box test, anxiolytic activity; assay type: in vivo; details: for % time in black compartment / Black compartment rearings/5 min / Black compartment transits/5 min / Delay white → black / White compartment rearings/5 min / White compartment transits/5 min: 40 min after administration, S.E.M. <12.6%, n = 5
Method: The two compartment box test was conducted in mice to evaluate anxiolytic activity. This test is based on a natural aversion of mice to light. The apparatus used is a box containing two compartments, one of which is dark (labeled "black compartment" in the Table 1) and the other illuminated (labeled "white compartment" in Table 1). The apparatus is designed to allow the animal to choose between staying in either of the two compartments. Under normal conditions, the mice avoid light and usually remain in the dark compartment. Under the influence of an anxiolytic agent, however, exploration of the illustrated compartment predominates. The test consists of placing each mouse in the center of the illuminated compartment and observing the animal's behavior by video system for 5 minutes. The number of exploratory rearings and the number of displacements (the crossing of lines traced on the floor of each compartment constitute "passages") are then recorded for each compartment. An anxiolytic effect induced by a drug, such as diazepam, is characterized by an increase in the number of exploratory rearings and in the number of passages into the illuminated compartment. The compounds of the invention were injected subcutaneously at variable doses, each dose being administered to a group of 5 mice.

In the case of `CCN1CCCC1CNC(=O)c1cc(Br)c(NC2=NC(C)CN2)cc1OC` (centres unmarked) [Compound 4, N-(1-ethyl-2-pyrrolidinylmethyl)-2-methoxy-4-[(4,5-dihydro-4-methyl-1H-imidazol-2-yl)amino]-5-bromobenzamide], the LD50 ([1]; female mice) is reported as 18 mg/kg, the LD50 ([1]; male mice) is reported as 15.5 mg/kg and the Motor activity (rats; 1 mg/kg s.c. 40 min before amphetamine 20 μg, time 10 min) is reported as 34 ± 8 shifts from place to place/10 minutes. For the same compound, the Motor activity (rats; 1 mg/kg s.c. 40 min before amphetamine 20 μg, time 20 min) was 60 ± 13 shifts from place to place/10 minutes, the Motor activity (rats; 1 mg/kg s.c. 40 min before amphetamine 20 μg, time 30 min) was 40 ± 10 shifts from place to place/10 minutes and the Motor activity (rats; 1 mg/kg s.c. 40 min before amphetamine 20 μg, time 40 min) was 38 ± 13 shifts from place to place/10 minutes. For the same compound, the Motor activity (rats; 1 mg/kg s.c. 40 min before amphetamine 20 μg, time 50 min) was 37 ± 10 shifts from place to place/10 minutes, the Motor activity (rats; 1 mg/kg s.c. 40 min before amphetamine 20 μg, time 60 min) was 16 ± 2 shifts from place to place/10 minutes and the Motor activity (rats; 1 mg/kg s.c. 40 min before amphetamine 20 μg, time 70 min) was 8 ± 3 shifts from place to place/10 minutes. The Motor activity (rats; 1 mg/kg s.c. 40 min before amphetamine 20 μg, time 80 min) was 4 ± 2 shifts from place to place/10 minutes, the Motor activity (rats; 10 mg/kg s.c. 40 min before amphetamine 20 μg, time 10 min) was 38 ± 7 shifts from place to place/10 minutes and the Motor activity (rats; 10 mg/kg s.c. 40 min before amphetamine 20 μg, time 20 min) was 8 ± 1.4 shifts from place to place/10 minutes. For the same compound, the Motor activity (rats; 10 mg/kg s.c. 40 min before amphetamine 20 μg, time 30 min) was 9 ± 3 shifts from place to place/10 minutes, the Motor activity (rats; 10 mg/kg s.c. 40 min before amphetamine 20 μg, time 40 min) was 11 ± 1.6 shifts from place to place/10 minutes and the Motor activity (rats; 10 mg/kg s.c. 40 min before amphetamine 20 μg, time 50 min) was 5 ± 1 shifts from place to place/10 minutes. The Motor activity (rats; 10 mg/kg s.c. 40 min before amphetamine 20 μg, time 60 min) was 2 ± 1 shifts from place to place/10 minutes, the “% time in black compartment” value (mice; 0.0001 mg/kg s.c.) was 27% and the “Black compartment rearings/5 min” value (mice; 0.0001 mg/kg s.c.) was 19 rearings/5 min. The “Black compartment transits/5 min” value (mice; 0.0001 mg/kg s.c.) was 21 transits/5 min, the “Delay white → black” value (mice; 0.0001 mg/kg s.c.) was 23 s and the “White compartment rearings/5 min” value (mice; 0.0001 mg/kg s.c.) was 73 rearings/5 min. The “White compartment transits/5 min” value (mice; 0.0001 mg/kg s.c.) was 82 transits/5 min, the “% time in black compartment” value (mice; 0.01 mg/kg s.c.) was 31% and the “Black compartment rearings/5 min” value (mice; 0.01 mg/kg s.c.) was 15 rearings/5 min. The “Black compartment transits/5 min” value (mice; 0.01 mg/kg s.c.) was 20 transits/5 min, the “Delay white → black” value (mice; 0.01 mg/kg s.c.) was 22 s and the “White compartment rearings/5 min” value (mice; 0.01 mg/kg s.c.) was 82 rearings/5 min. For the same compound, the “White compartment transits/5 min” value (mice; 0.01 mg/kg s.c.) was 83 transits/5 min, the “% time in black compartment” value (mice; 0.1 mg/kg s.c.) was 34% and the “Black compartment rearings/5 min” value (mice; 0.1 mg/kg s.c.) was 16 rearings/5 min. For the same compound, the “Black compartment transits/5 min” value (mice; 0.1 mg/kg s.c.) was 24 transits/5 min, the “Delay white → black” value (mice; 0.1 mg/kg s.c.) was 38 s and the “White compartment rearings/5 min” value (mice; 0.1 mg/kg s.c.) was 78 rearings/5 min. For the same compound, the “White compartment transits/5 min” value (mice; 0.1 mg/kg s.c.) was 99 transits/5 min and the minimal effective dose (mice; Mus musculus, sc, 40 min, subcutaneous, mice, read-out: dose at and above which anxiolytic activity is manifested) was at least 0.0001 mg/kg.
